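48-hour exposure; five concentrations; linearly interpolated endpoints. TGI marks complete inhibition of growth.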
Tests used:
Test in all cases: DTP human tumour cell line panel, 48 h
[1] = tested on: NCI/ADR-RES ovarian
[2] = tested on: SK-MEL-28 melanoma
[3] = tested on: SK-MEL-5 melanoma
[4] = tested on: COLO 205 colon
[5] = tested on: SN12C renal
[6] = tested on: NCI-H460 lung
[7] = tested on: OVCAR-4 ovarian
[8] = tested on: SF-268 CNS
[9] = tested on: MDA-MB-231 breast
[10] = tested on: K-562 leukemia
[11] = tested on: 786-0 renal
[12] = tested on: UACC-257 melanoma
[13] = tested on: MDA-N
[14] = tested on: SK-MEL-2 melanoma
[15] = tested on: HS 578T breast
[16] = tested on: MDA-MB-435
[17] = tested on: UO-31 renal
[18] = tested on: A549 NSCLC
[19] = tested on: MALME-3M melanoma
[20] = tested on: M14 melanoma
[21] = tested on: TK-10 renal
[22] = tested on: KM12 colon
[23] = tested on: PC-3 prostate
[24] = tested on: OVCAR-5 ovarian
[25] = tested on: CCRF-CEM leukemia
[26] = tested on: SW-620 colon
[27] = tested on: LOX IMVI melanoma
[28] = tested on: SF-539 CNS
[29] = tested on: HCT-116 colon
[30] = tested on: HOP-62 NSCLC
[31] = tested on: SK-OV-3 ovarian
[32] = tested on: HCT-15 colon
[33] = tested on: NCI-H522 lung
[34] = tested on: UACC-62 melanoma
[35] = tested on: IGROV1 ovarian
[36] = tested on: RPMI-8226 leukemia
[37] = tested on: NCI-H226 lung
[38] = tested on: DU-145 prostate
[39] = tested on: T-47D breast
[40] = tested on: SR leukemia
[41] = tested on: HL-60(TB) leukemia
[42] = tested on: NCI-H23 lung
[43] = tested on: MCF7 breast
[44] = tested on: SF-295 CNS
[45] = tested on: MOLT-4 leukemia
[46] = tested on: A498 renal
[47] = tested on: CAKI-1 renal
[48] = tested on: U251 CNS
[49] = tested on: EKVX NSCLC
[50] = tested on: SNB-19 CNS
[51] = tested on: ACHN renal
[52] = tested on: HCC-2998 colon
[53] = tested on: OVCAR-8 ovarian
[54] = tested on: OVCAR-3 ovarian
[55] = tested on: HT29 colon
[56] = tested on: RXF 393 renal
[57] = tested on: SNB-75 CNS
[58] = tested on: HOP-92 NSCLC

With `[O-][n+]1onc2c1-c1nonc1CC2` as the compound, how does the TGI [1] read?
Its TGI is over 100 µM.

What about the TGI [2] of the same compound?
The TGI was over 100 µM.

What about the TGI [3] of the same compound?
The TGI was 78.6 µM.

And the TGI [4]?
The TGI was over 100 µM.

What about the TGI [5] of the same compound?
Its TGI is over 100 µM.

What about the TGI [6] of the same compound?
The TGI was over 100 µM.

And the TGI [7]?
Its TGI is 74.1 µM.

What about the TGI [8] of the same compound?
Its TGI is over 100 µM.

What about the TGI [9] of the same compound?
The TGI was 69.2 µM.

What about the TGI [10] of the same compound?
Its TGI is over 100 µM.

What about the TGI [11] of the same compound?
Its TGI is over 100 µM.

What about the TGI [12] of the same compound?
Its TGI is 59.4 µM.

What about the TGI [13] of the same compound?
Its TGI is over 100 µM.

What about the TGI [14] of the same compound?
The TGI was 65.2 µM.

And the TGI [15]?
The TGI was 66.8 µM.

What about the TGI [16] of the same compound?
The TGI was over 100 µM.

What about the TGI [17] of the same compound?
The TGI was over 100 µM.

What about the TGI [18] of the same compound?
The TGI was over 100 µM.

And the TGI [19]?
Its TGI is 54 µM.

What about the TGI [20] of the same compound?
Its TGI is 89.8 µM.

And the TGI [21]?
Its TGI is 56.4 µM.

And the TGI [22]?
The TGI was 81.5 µM.

And the TGI [23]?
Its TGI is 77.8 µM.

And the TGI [24]?
Its TGI is over 100 µM.

What about the TGI [25] of the same compound?
The TGI was over 100 µM.

And the TGI [26]?
Its TGI is over 100 µM.

What about the TGI [27] of the same compound?
Its TGI is 79 µM.

And the TGI [28]?
The TGI was 53.4 µM.

And the TGI [29]?
The TGI was 46.2 µM.

And the TGI [30]?
Its TGI is 61.2 µM.

And the TGI [31]?
The TGI was over 100 µM.

What about the TGI [32] of the same compound?
The TGI was over 100 µM.

What about the TGI [33] of the same compound?
Its TGI is 95.1 µM.

What about the TGI [34] of the same compound?
Its TGI is over 100 µM.

What about the TGI [35] of the same compound?
Its TGI is over 100 µM.

And the TGI [36]?
Its TGI is over 100 µM.

And the TGI [37]?
Its TGI is 76.3 µM.

And the TGI [38]?
Its TGI is over 100 µM.

And the TGI [39]?
Its TGI is over 100 µM.

And the TGI [40]?
The TGI was over 100 µM.

What about the TGI [41] of the same compound?
Its TGI is 96.2 µM.

What about the TGI [42] of the same compound?
The TGI was 61.4 µM.

And the TGI [43]?
Its TGI is over 100 µM.

What about the TGI [44] of the same compound?
Its TGI is over 100 µM.

What about the TGI [45] of the same compound?
Its TGI is over 100 µM.

What about the TGI [46] of the same compound?
Its TGI is 83.6 µM.

What about the TGI [47] of the same compound?
Its TGI is over 100 µM.

And the TGI [48]?
Its TGI is over 100 µM.

And the TGI [49]?
Its TGI is 81.6 µM.

And the TGI [50]?
Its TGI is over 100 µM.

And the TGI [51]?
The TGI was 88.2 µM.

And the TGI [52]?
Its TGI is over 100 µM.

What about the TGI [53] of the same compound?
Its TGI is over 100 µM.

What about the TGI [54] of the same compound?
The TGI was 43.8 µM.

And the TGI [55]?
The TGI was over 100 µM.

What about the TGI [56] of the same compound?
Its TGI is 69.5 µM.

With `O=C(O)CCCC#CCCCC(=O)O` as the compound, how does the TGI [1] read?
The TGI was over 100 µM.

What about the TGI [2] of the same compound?
The TGI was over 100 µM.

And the TGI [3]?
Its TGI is over 100 µM.

What about the TGI [4] of the same compound?
Its TGI is over 100 µM.

And the TGI [5]?
Its TGI is over 100 µM.

And the TGI [6]?
The TGI was over 100 µM.

And the TGI [7]?
Its TGI is over 100 µM.

What about the TGI [8] of the same compound?
The TGI was over 100 µM.

What about the TGI [10] of the same compound?
The TGI was over 100 µM.

What about the TGI [11] of the same compound?
The TGI was over 100 µM.

And the TGI [12]?
The TGI was over 100 µM.

What about the TGI [13] of the same compound?
Its TGI is over 100 µM.

And the TGI [57]?
Its TGI is over 100 µM.

What about the TGI [14] of the same compound?
The TGI was over 100 µM.

What about the TGI [15] of the same compound?
Its TGI is over 100 µM.

What about the TGI [16] of the same compound?
The TGI was over 100 µM.

And the TGI [17]?
The TGI was over 100 µM.

What about the TGI [18] of the same compound?
The TGI was over 100 µM.

And the TGI [19]?
Its TGI is over 100 µM.

What about the TGI [20] of the same compound?
The TGI was over 100 µM.

And the TGI [21]?
Its TGI is over 100 µM.

And the TGI [22]?
Its TGI is over 100 µM.

And the TGI [23]?
Its TGI is over 100 µM.

And the TGI [24]?
Its TGI is over 100 µM.

What about the TGI [27] of the same compound?
Its TGI is over 100 µM.

What about the TGI [28] of the same compound?
Its TGI is over 100 µM.

And the TGI [29]?
Its TGI is over 100 µM.

What about the TGI [30] of the same compound?
The TGI was over 100 µM.

What about the TGI [31] of the same compound?
The TGI was over 100 µM.

What about the TGI [32] of the same compound?
The TGI was over 100 µM.

And the TGI [33]?
Its TGI is over 100 µM.

And the TGI [58]?
Its TGI is over 100 µM.

What about the TGI [34] of the same compound?
The TGI was over 100 µM.

And the TGI [35]?
Its TGI is over 100 µM.

And the TGI [38]?
The TGI was over 100 µM.

And the TGI [39]?
Its TGI is over 100 µM.

And the TGI [40]?
Its TGI is over 100 µM.

And the TGI [42]?
The TGI was over 100 µM.

What about the TGI [43] of the same compound?
Its TGI is over 100 µM.

What about the TGI [44] of the same compound?
The TGI was over 100 µM.

What about the TGI [46] of the same compound?
Its TGI is over 100 µM.

And the TGI [47]?
The TGI was over 100 µM.

And the TGI [48]?
The TGI was over 100 µM.

What about the TGI [49] of the same compound?
Its TGI is over 100 µM.

And the TGI [50]?
The TGI was over 100 µM.

What about the TGI [51] of the same compound?
The TGI was over 100 µM.

And the TGI [52]?
The TGI was over 100 µM.

And the TGI [53]?
Its TGI is over 100 µM.

And the TGI [54]?
Its TGI is over 100 µM.

And the TGI [55]?
Its TGI is over 100 µM.

And the TGI [56]?
Its TGI is over 100 µM.

From PubChem BioAssay (NCI)
